Experimental data reported in patent publication US10435361B2, “Kinase inhibitors” (Topivert Pharma Limited, priority 2013, dated 2019).
Blank lines part the entries; values can stand above or below the compound they belong to.

Key:
PBMCs [1] = assay: LPS-induced TNFα/IL-8 release in PBMC cells; format: cell-based; conditions: Homo sapiens, assay (b), read-out: IC50 Values for Inhibition of Cytokine Release PBMCs IL-8
Method in brief: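 Healthy-donor PBMCs isolated by density gradient were pretreated with compound for 2 h, then stimulated with 1 ng/mL LPS (E. coli 0111:B4) for 24 h at 37° C., 5% CO2. IL-8 and TNFα in supernatants measured by sandwich ELISA.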

PBMCs [2] = assay: IL-2 and IFN gamma release in CD3/CD28 stimulated PBMC cells; format: cell-based; conditions: Homo sapiens, assay (c)
Method in brief: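 Healthy-donor PBMCs, density-gradient isolated, stimulated on plates pre-coated with anti-CD3 (0.3 μg/mL) and anti-CD28 (3 μg/mL) antibodies, with compound, for 3 days under standard culture conditions. IC50 derived from the dose-response curve.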

HT29 cells = assay: IL-1β-induced IL-8 release in HT29 cells; format: cell-based; conditions: Homo sapiens, HT-29, assay (d), read-out: IC50 Values for Inhibition of Cytokine Release HT29 cells IL-8
Method: HT29 cells, a human colon adenocarcinoma cell line, are plated in a 96 well plate (24 hr) and pre-treated with compounds at the desired concentration for 2 hours before addition of 5 ng/mL of IL-1β (Abcam) for 24 hours. Supernatants are harvested for IL-8 quantification by Sandwich ELISA (Duo-set, R&D System). The IC50 is determined from the dose response curve.

PBMCs [3] = assay: Cell mitosis assay in PBMCs; format: cell-based; conditions: Homo sapiens, PBMC, 5 μg/mL
Method in brief: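 Human PBMCs from healthy donors, density-gradient isolated, stimulated with 2% PHA 48 h, then exposed 20 h to test compounds; demecolcine 0.1 μg/mL added 2 h before harvest. Fixed/permeabilised cells stained for phospho-histone H3 and propidium iodide; mitotic lymphocytes counted by flow cytometry.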

Lewis rats = assay: Endotoxin-induced uveitis in rats; format: in vivo; conditions: rats treated with intravitreal endotoxin LPS
Method: Male, Lewis rats (6-8 weeks old, Charles River UK Limited) are housed in cages of 3 at 19-21° C. with a 12 h light/dark cycle (07:00/19:00) and fed a standard diet of rodent chow and water ad libitum. Non-fasted rats are weighed, individually identified on the tail with a permanent marker, and receive a single intravitreal administration into the right vitreous humor (5 μL dose volume) of 100 ng/animal of LPS (Escherichia coli 0111:B4 prepared in PBS, Sigma Aldrich, UK) using a 32-gauge needle. Untreated rats are injected with PBS. Test compound, dexamethasone (Dex) or vehicle (20% hydroxypropyl-β-cyclodextrin, 0.1% HPMC, 0.01% Benzalkonium chloride, 0.05% EDTA, 0.7% NaCl in deionised water) are administered by the topical route onto the right eye (10 μL) of animals 30 minutes prior to LPS, at the time of LPS administration, and 1, 2 and 4 hours post LPS administration. Before administration, the solution or suspension to be administered is agitated for 5 minutes to ensure a uniform suspension. 6 hours after LPS dosing, animals are euthanized by overdose with pentobarbitone (i.v.). Following euthanasia, the right eye of each animal is enucleated and dissected into front (anterior) and back (posterior) sections around the lens. Each section is weighed and homogenised in 500 μL of sterile phosphate buffered saline followed by 20 minutes centrifugation at 12000 rpm at 4° C. The resulting supernatant is divided into 3 aliquots and stored at −80° C. until subsequent cytokine analysis by R&D DuoSet ELISA.

[4] = Plasma pharmacokinetics in rats, single intravenous or oral administration; format: in vivo; conditions: male, Wistar, rat, rats, intravenous 0.25 mg/kg
Method: Studies were conducted by Sai Life Sciences (Hinjewadi, Pune, India) to investigate the plasma pharmacokinetics and total colon tissue distribution of compounds of the invention. In particular, pharmacokinetic studies were carried out in: • male C57BL/6 mice, following a single oral administration; and • male Wistar rats following a single intravenous or oral administration.

BDF1 mice = assay: TNBS-induced colitis in mice; format: in vivo; conditions: conducted over 2 days; vehicle corn oil/transcutol/maisine/cremophor ELP
Method: Non-fasted, 10-12 week old, male BDF1 mice are dosed by oral gavage twice daily with either vehicle (5 mL/kg), reference item (Budesonide 2.5 mg/kg) or test compound (1 or 5 mg/kg) one day before (Day −1) stimulation of the inflammatory response by treatment with 2,4,6-trinitrobenzenesulphonic acid (TNBS) (15 mg/mL in 50% ethanol/50% saline). On Day 0 of the study TNBS (200 μL) is administered intra-colonically via a plastic catheter with BID dosing of the vehicle, reference or test compound continuing for 2 or 4 days. During the study, animals are weighed every day and stool observations are made and recorded as a score, based on stool consistency. At the time of sacrifice on Day 2 (or Day 4), the large intestine is removed and the length and weight recorded. Sections of the colon are taken for histopathology scoring to determine disease severity.

[5] = test system: Salmonella typhimurium TA98; assay: Bacterial reverse mutation screen, strain TA98; format: cell-based; conditions: presence or absence of S-9 mix; up to 1000 μg/plate analysable
Method: (§1) Studies were conducted by Sequani (Ledbury, Herefordshire, UK) to assess compounds of the invention for their ability to induce mutations in two histidine dependent auxotrophic mutants of Salmonella typhimurium, strains TA98 and TA100 in vitro.
(§2) The mutation screen was conducted using the plate incorporation method and was performed in both the presence and absence of S-9 mix (a liver post-mitochondrial fraction derived from the livers of Aroclor 1254 treated rats). The bacteria were exposed to test compounds dissolved in dimethylsulphoxide, which solvent was also used as the negative control. The dose levels used were 0.32, 1.6, 8, 40, 200, 1000 or 5000 μg/plate.
(§3) Precipitation was also noted in both strains at 1000 μg/plate in the presence and absence of S-9 mix.

[6] = test system: Salmonella typhimurium TA100; assay: Bacterial reverse mutation screen, strain TA100; format: cell-based; conditions: presence or absence of S-9 mix; up to 1000 μg/plate analysable
Method: as §1, §2, §3

[7] = Hydrolytic stability study (DMSO/water 3:1, 60° C.); format: physicochemical
Method: Chemical stability of compounds of the invention was assessed in a mixture of DMSO and water (3:1) at a test compound concentration of 1 mg/mL
Agilent, Waters X-Select C18, 2.5 μm, 4.6×30 mm column, 4 min method, 5-95%
MeCN/water (0.1% formic acid).
Column Oven Temperature 40° C.
Sample Preparation • A 1.0 mg sample of test compound was dissolved in 750 μL of DMSO. Water (250 μL) was added slowly, ensuring no precipitation occurred.
Recording Stability • A 50 μL aliquot of the test solution was removed and analysed in duplicate by 5 μL HPLC injections. The peak area for the test compound was recorded following manual integration of the corresponding UV trace. • The test solution was heated to 60° C., with stirring, and 50 μL aliquots removed for HPLC analysis at 5 and 24 h timepoints.

CYP2C9 = CYP2C9 (Homo sapiens (Human), UniProt P11712); assay: CYP2C9 inhibition studies; format: in vitro ADME; conditions: inhibition at 5 μM reported instead of 15 μM (precipitation)
Chain of CYP2C9 (P11712 whole entry): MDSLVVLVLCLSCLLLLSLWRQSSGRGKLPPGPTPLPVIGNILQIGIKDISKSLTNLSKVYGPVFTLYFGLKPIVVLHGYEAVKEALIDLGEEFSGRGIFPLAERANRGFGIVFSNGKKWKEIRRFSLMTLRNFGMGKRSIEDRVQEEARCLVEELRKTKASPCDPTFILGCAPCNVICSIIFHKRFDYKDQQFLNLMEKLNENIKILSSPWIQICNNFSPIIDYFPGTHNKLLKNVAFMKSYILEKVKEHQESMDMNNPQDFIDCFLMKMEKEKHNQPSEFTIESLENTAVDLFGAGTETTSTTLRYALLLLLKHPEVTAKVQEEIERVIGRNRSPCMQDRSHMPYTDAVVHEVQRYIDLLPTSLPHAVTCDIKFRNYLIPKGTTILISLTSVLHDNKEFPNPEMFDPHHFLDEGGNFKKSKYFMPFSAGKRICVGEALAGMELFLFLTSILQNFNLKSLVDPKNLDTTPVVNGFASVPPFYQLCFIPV
Method: Assessment of certain in vitro ADME (absorption, distribution, metabolism, and excretion) parameters for certain compounds of the invention was conducted by BioFocus (Saffron Walden, UK).

[8] = read-out: IC50 Values for Inhibition of Cytokine Release PBMCs IFNγ
[9] = read-out: IC50 Values for Inhibition of Cytokine Release PBMCs IL-2

- IC50 (HT29 cells): 0.6 nM
- clearance [4]: 14.2 mL/min/kg
Compound: CNC(=O)c1cc(C(C)(C)C)cc(NC(=O)Nc2ccc(Oc3ccnc(Nc4cc(OC)cc(OCCOCCOCCOC)c4)c3)c3ccccc23)c1OC [Example 29, 5-(tert-Butyl)-2-methoxy-3-(3-(4-((2-((3-methoxy-5-(2-(2-(2-methoxyethoxy)ethoxy)-ethoxy)phenyl)amino)pyridin-4-yl)oxy)naphthalen-1-yl)ureido)-N-methylbenzamide]
- IC50 (PBMCs [1]): 2.3 nM
- IC50 (PBMCs [2]; [8]): 3.5 nM
- IC50 (PBMCs [2]; [9]): 51.2 nM
- inhibition at 5 µg/mL (PBMCs [3]): 34.6%
- cytokine levels in the anterior and posterior segments of the eyes (Lewis rats): significantly reduced

- IC50 (HT29 cells): 16.4 nM
Compound: COc1cc(Nc2cc(Oc3ccc(NC(=O)Nc4cc(C(C)(C)C)cc(NS(C)(=O)=O)c4OC)c4ccccc34)ccn2)cc(C(=O)NCCCN2CCOCC2)c1 [Example 66, 3-((4-((4-(3-(5-(tert-Butyl)-2-methoxy-3-(methylsulfonamido)phenyl)ureido)naphthalen-1-yl)oxy)pyridin-2-yl)amino)-5-methoxy-N-(3-morpholinopropyl)benzamide]
- IC50 (PBMCs [1]): 1.9 nM
- IC50 (PBMCs [2]; [8]): 20.2 nM
- IC50 (PBMCs [2]; [9]): 49.2 nM
- inhibition at 5 µg/mL (PBMCs [3]): 66.6%
- cytokine levels in the anterior and posterior segments of the eyes (Lewis rats): significantly reduced

Compound: COc1c(NC(=O)Nc2ccc(Oc3ccnc(Nc4ccccc4)c3)c3ccccc23)cc(C(C)(C)C)cc1C(=O)NC1COC1 [Example 75, 5-(tert-Butyl)-2-methoxy-N-(oxetan-3-yl)-3-(3-(4-((2-(phenylamino)pyridin-4-yl)ox)-naphthalen-1-yl)ureido)benzamide]
- IC50 (PBMCs [1]): 5 nM
- IC50 (PBMCs [2]; [8]): 14.9 nM
- IC50 (PBMCs [2]; [9]): 56.8 nM
- inhibition at 5 µg/mL (PBMCs [3]): 42.6%
- activity in TNBS-induced colitis (histopathology analysis) (BDF1 mice): displayed substantial activity
- cytokine levels in the anterior and posterior segments of the eyes (Lewis rats): significantly reduced
- clearance [4]: 4.4 mL/min/kg
- increases in revertant colonies, strain TA98 [5]: no dose-related or statistically significant increases in revertant colonies
- increases in revertant colonies, strain TA100 [6]: no dose-related or statistically significant increases in revertant colonies
- % Parent Remaining ([7]; DMSO/water 3:1, 0 min): 100%
- % Parent Remaining ([7]; DMSO/water 3:1, 60° C., 1440 min): 99%

- % Inh at 5 μM (CYP2C9; CYP2C9, 0 min preincubation): 31^[†] %
- % Inh at 5 μM (CYP2C9; CYP2C9, 30 min preincubation): 66^[†] %
Compound: C#CC(C)(C)c1cc(NC(=O)Nc2ccc(Oc3ccnc(Nc4cc(C)c5[nH]ncc5c4)n3)c3ccccc23)n(-c2ccc(C)cc2)n1 [Ref Cpd A]
